# Measured values published in patent US12077503B2, “Substituted cyclic amides and their use as herbicides” (FMC CORPORATION, priority 2015, dated 2024).
# Tests used:
# Assay type in all cases: in vivo
# [1] = test system: green foxtail (Setaria viridis); assay: Test A preemergence; details: for Foxtail, Green plant response rating: 31 g ai/ha, 0 to 100 scale where 0 is no effect and 100 is complete control; for Plant response rating, Foxtail, Green: 125 g ai/ha, 0 to 100 scale (0 no effect, 100 complete control)
# Summary of the method: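 In a loam soil and sand blend, planted seeds got a preemergence directed soil spray, and young plants at the one- to two-leaf stage, 2–10 cm high, got a postemergence application; ~10 d greenhouse hold; injury rated visually, 0 = none, 100 = complete control.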
# [2] = test system: Monochoria (Monochoria vaginalis); assay: Test F flooded paddy test; set-up: key: 0 = no effect, 100 = complete control; details: Flood
# Source text: (§1) Plant species in the flooded paddy test consisted of one stand of 9 or 10 water seeded rice seedlings (Rice, W. S. Jap, Oryza sativa cv. ‘Japonica—M202’ or Rice, W. S. Ind, ‘Indica’), and two stands of 3 or 4 transplanted rice seedlings (Oryza sativa cv. ‘Japonica—M202’), Monochoria (Monochoria vaginalis), sedge, umbrella (small-flower umbrella sedge, Cyperus difformis), hardstem bulrush (Scirpus juncoides), redstem (purple redstem, Ammannia coccinea), rice flatsedge (Cyperus iria), bearded sprangletop (Leptochloa fascicularis), barnyardgrass (Echinochloa crus-galli), waterplantain (common waterplantain, Alisma plantago-aquatica), and late watergrass (Echinochloa oryzicola) grown to the 2 to 2.5 leaf stage for testing. Potted plants were grown in a greenhouse with day/night temperature settings of 30/27° C., and supplemental balanced lighting was provided to maintain a 16-hour photoperiod. At time of treatment, test pots were flooded to 3 cm above the soil surface, treated by application of test compounds directly to the paddy water, and then maintained at that water depth for the duration of the test. Effects of treatments on rice and weeds were visually evaluated by comparison to untreated controls after 21 d. Plant response ratings, summarized in Table F, are based on a scale of 0 to 100 where 0 is no effect and 100 is complete control. A dash (-) response means no test result.
# [3] = test system: bearded sprangletop (Leptochloa fascicularis); assay: Test F flooded paddy test; set-up: key: 0 = no effect, 100 = complete control; details: Flood
# Source text: as §1
# [4] = test system: sedge, umbrella (small-flower umbrella sedge, Cyperus difformis); assay: Test F flooded paddy test; set-up: key: 0 = no effect, 100 = complete control; details: Flood
# Source text: as §1
# [5] = test system: barnyardgrass (Echinochloa crus-galli); assay: Test F flooded paddy test; set-up: key: 0 = no effect, 100 = complete control; details: Flood
# Source text: as §1
# [6] = test system: rice flatsedge (Cyperus iria); assay: Test F flooded paddy test; set-up: key: 0 = no effect, 100 = complete control; details: Flood
# Source text: as §1
# [7] = test system: water seeded rice seedlings (Rice, W. S. Jap, Oryza sativa cv. ‘Japonica—M202’); assay: Test F flooded paddy test; set-up: key: 0 = no effect, 100 = complete control; details: Flood
# Source text: as §1
# [8] = test system: transplanted rice seedlings (Oryza sativa cv. ‘Japonica—M202’); assay: Test F flooded paddy test; set-up: key: 0 = no effect, 100 = complete control; details: Flood
# Source text: as §1
# [9] = test system: late watergrass (Echinochloa oryzicola); assay: Test F flooded paddy test; set-up: key: 0 = no effect, 100 = complete control; details: Flood
# Source text: as §1
# [10] = test system: waterplantain (common waterplantain, Alisma plantago-aquatica); assay: Test F flooded paddy test; details: Flood
# Source text: as §1
# corn (Zea mays) = assay: Test G Pre-Emergence Protocol; details: Zea mays, pre-emergence, 312 h, evaluated after 13 days; for plant injury at 15.625 g/ha: 15.625 g ai/ha; for plant injury at 15.625 g/ha / plant injury at 250 g/ha: read-out: Corn damage rating (100=total damage to plant; 0=no damage to plant); for plant injury at 62.5 g/ha: 62.5 g ai/ha, 100=total damage to plant, 0=no damage to plant, read-out: plant damage rating, Corn; for plant injury at 250 g/ha: 250 g ai/ha
# Experimental: (§2) Seeds of corn (Zea mays), giant foxtail (Setaria faberi), barnyardgrass (Echinochloa crus-galli), ivy-leaved morning glory (Ipomoea hederacea), redroot pigweed (Amaranthus retroflexus) and velvetleaf (Abutilon theophrasti) were sown in standard soil in pots. After cultivation for one day under controlled conditions in a glasshouse (at 24/16° C., day/night; 14 hours light; 65% humidity), the plants were sprayed with an aqueous spray solution derived from the formulation of the technical active ingredient in acetone/water (50:50) solution containing 0.5% Tween 20 (polyoxyethylene sorbitan monolaurate, CAS RN 9005-64-5) to give a final dose of 15.625, 62.5 or 250 g/ha of test compound.
# (§3) The test plants were then grown on under controlled conditions in a glasshouse (at 24/16° C., day/night; 14 hours light; 65% humidity) and watered twice daily. After 13 days the test was evaluated (100=total damage to plant; 0=no damage to plant). A dash (-) means no test result.
# [11] = test system: giant foxtail (Setaria faberi); assay: Test G Pre-Emergence Protocol; details: Setaria faberi, pre-emergence, 312 h, evaluated after 13 days; for pest or weed control at 15.625 g/ha: 15.625 g ai/ha; for pest or weed control at 15.625 g/ha / pest or weed control at 250 g/ha: read-out: Foxtail, Giant damage rating (100=total damage to plant; 0=no damage to plant); for pest or weed control at 62.5 g/ha: 62.5 g ai/ha, 100=total damage to plant, 0=no damage to plant, read-out: plant damage rating, Foxtail, Giant; for pest or weed control at 250 g/ha: 250 g ai/ha
# Experimental: as §2, §3
smiles,measurement,setting,value
CN1C[C@H](c2csc3c2CCC(F)(F)C3)[C@@H](C(=O)Nc2ccc(F)c(F)c2F)C1=O (racemic) [Compound 1368],"Foxtail, Green plant response rating",[1],0
same,"Plant response rating, Foxtail, Green",[1],100
CN1C[C@H](c2csc3c2CCC(F)(F)C3)[C@@H](C(=O)Nc2cccc(F)c2F)C1=O (racemic) [Compound 1369],"Foxtail, Green plant response rating",[1],20
same,"Plant response rating, Foxtail, Green",[1],100
Cc1ccc(C2CN(C)C(=O)C2C(=O)Nc2ccccc2F)cc1F (stereo not shown) [Compound 465],Plant response rating: Monochoria,[2]; 32 g ai/ha,50
same,Plant response rating: Monochoria,[2]; 64 g ai/ha,75
same,Plant response rating: Monochoria,[2]; 125 g ai/ha,100
same,Plant response rating: Monochoria,[2]; 250 g ai/ha,100
same,"Plant response rating: Sprangletop, Brdd.",[3]; 32 g ai/ha,85
same,"Plant response rating: Sprangletop, Brdd.",[3]; 64 g ai/ha,85
same,"Plant response rating: Sprangletop, Brdd.",[3]; 125 g ai/ha,95
same,"Plant response rating: Sprangletop, Brdd.",[3]; 250 g ai/ha,95
same,"Plant response rating: Sedge, Umbrella",[4]; 32 g ai/ha,0
same,"Plant response rating: Sedge, Umbrella",[4]; 64 g ai/ha,0
same,"Plant response rating: Sedge, Umbrella",[4]; 125 g ai/ha,0
same,"Plant response rating: Sedge, Umbrella",[4]; 250 g ai/ha,0
same,Plant response rating: Barnyardgrass,[5]; 32 g ai/ha,100
same,Plant response rating: Barnyardgrass,[5]; 64 g ai/ha,100
same,Plant response rating: Barnyardgrass,[5]; 125 g ai/ha,100
same,Plant response rating: Barnyardgrass,[5]; 250 g ai/ha,100
same,"Plant response rating: Flatsedge, Rice",[6]; 32 g ai/ha,0
same,"Plant response rating: Flatsedge, Rice",[6]; 64 g ai/ha,0
same,"Plant response rating: Flatsedge, Rice",[6]; 125 g ai/ha,0
same,"Plant response rating: Flatsedge, Rice",[6]; 250 g ai/ha,0
same,"Plant response rating: Rice, Water Seeded",[7]; 32 g ai/ha,0
same,"Plant response rating: Rice, Water Seed.",[7]; 64 g ai/ha,0
same,"Plant response rating: Rice, Water Seed.",[7]; 125 g ai/ha,35
same,"Plant response rating: Rice, Water Seeded",[7]; 250 g ai/ha,60
same,"Plant response rating: Rice, Transplanted",[8]; 32 g ai/ha,0
same,"Plant response rating: Rice, Transplanted",[8]; 64 g ai/ha,0
same,"Plant response rating: Rice, Transplanted",[8]; 125 g ai/ha,0
same,"Plant response rating: Rice, Transplanted",[8]; 250 g ai/ha,15
same,"Plant response rating: Watergrass, Late",[9]; 32 g ai/ha,85
same,"Plant response rating: Watergrass, Late",[9]; 64 g ai/ha,00
same,"Plant response rating: Watergrass, Late",[9]; 125 g ai/ha,100
same,"Plant response rating: Watergrass, Late",[9]; 250 g ai/ha,100
same,Plant response rating: Waterplantain,[10]; 32 g ai/ha,0
same,Plant response rating: Waterplantain,[10]; 64 g ai/ha,40
same,Plant response rating: Waterplantain,[10]; 125 g ai/ha,90
same,Plant response rating: Waterplantain,[10]; 250 g ai/ha,100
CN1CC(c2cccc(OC(F)F)c2)C(C(=O)Nc2ccc(F)cc2F)C1=O (stereo not shown) [Compound 617],Plant response rating: Monochoria,[2]; 32 g ai/ha,0
same,Plant response rating: Monochoria,[2]; 64 g ai/ha,40
same,Plant response rating: Monochoria,[2]; 125 g ai/ha,70
same,Plant response rating: Monochoria,[2]; 250 g ai/ha,100
same,"Plant response rating: Sprangletop, Brdd.",[3]; 32 g ai/ha,0
same,"Plant response rating: Sprangletop, Brdd.",[3]; 64 g ai/ha,80
same,"Plant response rating: Sprangletop, Brdd.",[3]; 125 g ai/ha,85
same,"Plant response rating: Sprangletop, Brdd.",[3]; 250 g ai/ha,90
same,"Plant response rating: Sedge, Umbrella",[4]; 32 g ai/ha,0
same,"Plant response rating: Sedge, Umbrella",[4]; 64 g ai/ha,0
same,"Plant response rating: Sedge, Umbrella",[4]; 125 g ai/ha,0
same,"Plant response rating: Sedge, Umbrella",[4]; 250 g ai/ha,0
same,Plant response rating: Barnyardgrass,[5]; 32 g ai/ha,60
same,Plant response rating: Barnyardgrass,[5]; 64 g ai/ha,85
same,Plant response rating: Barnyardgrass,[5]; 125 g ai/ha,100
same,Plant response rating: Barnyardgrass,[5]; 250 g ai/ha,100
same,"Plant response rating: Flatsedge, Rice",[6]; 32 g ai/ha,0
same,"Plant response rating: Flatsedge, Rice",[6]; 64 g ai/ha,0
same,"Plant response rating: Flatsedge, Rice",[6]; 125 g ai/ha,0
same,"Plant response rating: Flatsedge, Rice",[6]; 250 g ai/ha,0
same,"Plant response rating: Rice, Water Seeded",[7]; 32 g ai/ha,0
same,"Plant response rating: Rice, Water Seed.",[7]; 64 g ai/ha,0
same,"Plant response rating: Rice, Water Seed.",[7]; 125 g ai/ha,20
same,"Plant response rating: Rice, Water Seeded",[7]; 250 g ai/ha,60
same,"Plant response rating: Rice, Transplanted",[8]; 32 g ai/ha,0
same,"Plant response rating: Rice, Transplanted",[8]; 64 g ai/ha,0
same,"Plant response rating: Rice, Transplanted",[8]; 125 g ai/ha,0
same,"Plant response rating: Rice, Transplanted",[8]; 250 g ai/ha,0
same,"Plant response rating: Watergrass, Late",[9]; 32 g ai/ha,100
same,"Plant response rating: Watergrass, Late",[9]; 64 g ai/ha,100
same,"Plant response rating: Watergrass, Late",[9]; 125 g ai/ha,100
same,"Plant response rating: Watergrass, Late",[9]; 250 g ai/ha,100
same,Plant response rating: Waterplantain,[10]; 32 g ai/ha,0
same,Plant response rating: Waterplantain,[10]; 64 g ai/ha,75
same,Plant response rating: Waterplantain,[10]; 125 g ai/ha,85
same,Plant response rating: Waterplantain,[10]; 250 g ai/ha,90
CN1C[C@H](c2ccc(C(F)(F)F)cc2)[C@@H](C(=O)Nc2cccnc2F)C1=O [Compound 1396],plant injury at 15.625 g/ha,corn (Zea mays),70%
same,plant injury at 62.5 g/ha,corn (Zea mays),80%
same,plant injury at 250 g/ha,corn (Zea mays),80%
same,pest or weed control at 15.625 g/ha,[11],90%
same,pest or weed control at 62.5 g/ha,[11],90%
same,pest or weed control at 250 g/ha,[11],100%
CN1C[C@H](c2ccc(Cl)cc2)[C@@H](C(=O)Nc2cccc(F)n2)C1=O [Compound 1399],plant injury at 15.625 g/ha,corn (Zea mays),0%
same,plant injury at 62.5 g/ha,corn (Zea mays),10%
same,plant injury at 250 g/ha,corn (Zea mays),60%
same,pest or weed control at 15.625 g/ha,[11],90%
same,pest or weed control at 62.5 g/ha,[11],90%
same,pest or weed control at 250 g/ha,[11],90%
